The text below walks through data of US20210260213A1, “METHODS AND COMPOSITIONS FOR DELIVERY OF A THERAPEUTIC AGENT” (priority 2018, published 2021).

Molecules are shown by their SMILES. In brackets after ≈: the same amount, converted by molar mass.

For orientation: zone of inhibition means the size of the clear area around the sample on an inoculated plate.

In one test the test system is Pseudomonas aeruginosa. Nature of the test: Filter disc zone of inhibition on Mueller Hinton plates. The test is classed as cell-based. The note with it: control study. On the procedure:
(§1) Antimicrobial activity of the released drug was tested on Pseudomonas aeruginosa and MRSA cultures and compared to standard concentrations of antibiotic using filter disks on Mueller Hinton plates. The released antibiotics or controls were added onto sterile filter discs (created using a standard hole punch on filter paper, autoclaved). One colony of each bacteria was selected and (pseudomonas or MRSA) placed into a bacteria culture tube and were incubated in 5 mL of LB broth and placed on 37° C. shaker for approximately 4-6 hours.
(§2) 500 μL of the incubated bacteria was then added to the Mueller-Hinton Plates (which have been acclimated to room temperature for at least 2 hours) and a plastic disposable spreader was used to carefully spread the bacteria broth onto the plates and allowed to settle for approximately 5-10 minutes. The filter discs were then placed on top of the bacterial plate and the plates inverted and placed in the 37° C. incubator overnight. After 24 hours, the plates were removed and the zones of inhibition measured and photographed. Parafilm was used to wrap around each plate to keep the plates at room temperature.

The conditions of test [1]: published studies; cited from earlier work.
In a further test the test system is MRSA. Nature of the test: Filter disc zone of inhibition on Mueller Hinton plates. Type of test: cell-based. How it is done:
as §1, §2

Consider `O=C(O)c1cn(C2CC2)c2cc(N3CCNCC3)c(F)cc2c1=O` [Ciprofloxacin], for which the “amount sufficient to inhibit growth” value in the test on Pseudomonas aeruginosa came out at 5 µg. In addition, the minimum inhibitory concentration in test [1] is reported as 0.5 mg/L (≈ 1.51 µM).
Turning to `CN[C@H](CC(C)C)C(=O)N[C@H]1C(=O)N[C@@H](CC(N)=O)C(=O)N[C@H]2C(=O)N[C@H]3C(=O)N[C@H](C(=O)N[C@H](C(=O)O)c4cc(O)cc(O)c4-c4cc3ccc4O)[C@H](O)c3ccc(c(Cl)c3)Oc3cc2cc(c3O[C@@H]2O[C@H](CO)[C@@H](O)[C@H](O)[C@H]2O[C@H]2C[C@](C)(N)[C@H](O)[C@H](C)O2)Oc2ccc(cc2Cl)[C@H]1O` [Vancomycin], the zone of inhibition at 10 µg/disc with MRSA (Staphylococcus aureus, MRSA, control, 10 μg on a filter disc) amounted to 8 mm. Further, the “amount sufficient to inhibit growth” value with MRSA (control study, filter disc) came out at 10 µg. In the test with MRSA (drug released from the HA polymer, every collection between 1 hour and 7 days), the zone of inhibition entry is listed as “up to 15 mm”. Further, in test [1], the minimum inhibitory concentration is listed as 2 mg/L (≈ 1.38 µM).
